Test results reported in PubChem BioAssay AID720624 (Broad Institute, 2013).
Records with an inconclusive call do not appear.

These compounds were tested on SNB-75 viability, CellTiter-Glo ATP luminescence, 8-48 h (assay: cytotoxicity in SNB-75 CNS cells – cell-based, CellTiter-Glo ATP luminescence, several timepoints, dry powder, mechanism study for HRAS target identification, late-stage follow-up (AID 720624)). Settings: measured here: 8 h treatment.

Compound	AC50 [nM]
Cc1onc(C(=O)N2CCN(C(c3ccc(Cl)cc3)c3ccc(Cl)cc3)CC2)c1[N+](=O)[O-]	629
COC(=O)c1ccc([C@@H]2c3[nH]c4ccccc4c3C[C@@H](C(=O)OC)N2C(=O)CCl)cc1	479
CC(C)(C)OC(=O)NCCOCCOCCOc1ccc(N(C(=O)CCl)C(C(=O)NCCc2ccccc2)c2cccs2)cc1Cl (stereo not given)	787
C#CCCCC(=O)NCCOCCOCCOc1ccc(N(C(=O)CCl)C(C(=O)NCCc2ccccc2)c2cccs2)cc1Cl (stereo not given)	3810
COc1ccc(N(C(=O)CCl)C(C(=O)NCCc2ccccc2)c2cccs2)cc1Cl (stereo not given)	298

Same assay, conditions: measured here: 24 h treatment

Compound	AC50 [nM]
Cc1onc(C(=O)N2CCN(C(c3ccc(Cl)cc3)c3ccc(Cl)cc3)CC2)c1[N+](=O)[O-]	490
COC(=O)c1ccc([C@@H]2c3[nH]c4ccccc4c3C[C@@H](C(=O)OC)N2C(=O)CCl)cc1	224
CC(C)(C)OC(=O)NCCOCCOCCOc1ccc(N(C(=O)CCl)C(C(=O)NCCc2ccccc2)c2cccs2)cc1Cl (stereo not given)	398
C#CCCCC(=O)NCCOCCOCCOc1ccc(N(C(=O)CCl)C(C(=O)NCCc2ccccc2)c2cccs2)cc1Cl (stereo not given)	2480
COc1ccc(N(C(=O)CCl)C(C(=O)NCCc2ccccc2)c2cccs2)cc1Cl (stereo not given)	246

Same assay, conditions: measured here: 48 h treatment

Compound	AC50 [nM]
Cc1onc(C(=O)N2CCN(C(c3ccc(Cl)cc3)c3ccc(Cl)cc3)CC2)c1[N+](=O)[O-]	1050
COC(=O)c1ccc([C@@H]2c3[nH]c4ccccc4c3C[C@@H](C(=O)OC)N2C(=O)CCl)cc1	418
CC(C)(C)OC(=O)NCCOCCOCCOc1ccc(N(C(=O)CCl)C(C(=O)NCCc2ccccc2)c2cccs2)cc1Cl (stereo not given)	1030
C#CCCCC(=O)NCCOCCOCCOc1ccc(N(C(=O)CCl)C(C(=O)NCCc2ccccc2)c2cccs2)cc1Cl (stereo not given)	4780
COc1ccc(N(C(=O)CCl)C(C(=O)NCCc2ccccc2)c2cccs2)cc1Cl (stereo not given)	319
